{
  "source": "paper PMC8668240",
  "about": "“GABAA Receptor Subunit Composition Drives Its Sensitivity to the Insecticide Fipronil” (Frontiers in Neuroscience, 2021)",
  "experiment_in_all_cases": "two-electrode voltage clamp, Xenopus oocytes",
  "assay_type_in_all_cases": "cell-based",
  "key": {"[1]": {"target": "T1, α6β3 GABAAR (binary) (Mus musculus, UniProt P16305+P63080)", "T1 construct": "gene Gabra6; full-length cDNAs, injected 1:1 in Xenopus oocyte nucleus; heteropentamer without third subunit", "T1 sequence (P16305 20-453)": "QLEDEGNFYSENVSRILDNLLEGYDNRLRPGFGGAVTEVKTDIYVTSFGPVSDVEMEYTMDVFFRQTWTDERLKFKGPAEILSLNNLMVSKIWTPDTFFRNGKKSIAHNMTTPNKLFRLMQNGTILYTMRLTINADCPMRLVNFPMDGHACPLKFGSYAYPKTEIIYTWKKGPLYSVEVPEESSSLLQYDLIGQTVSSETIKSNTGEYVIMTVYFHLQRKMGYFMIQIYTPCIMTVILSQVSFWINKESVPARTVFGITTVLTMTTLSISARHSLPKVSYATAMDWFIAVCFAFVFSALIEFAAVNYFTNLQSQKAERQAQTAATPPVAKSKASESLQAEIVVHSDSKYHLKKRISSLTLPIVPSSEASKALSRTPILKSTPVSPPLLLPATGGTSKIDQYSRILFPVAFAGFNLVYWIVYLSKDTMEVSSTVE", "T1 sequence (P63080 26-473)": "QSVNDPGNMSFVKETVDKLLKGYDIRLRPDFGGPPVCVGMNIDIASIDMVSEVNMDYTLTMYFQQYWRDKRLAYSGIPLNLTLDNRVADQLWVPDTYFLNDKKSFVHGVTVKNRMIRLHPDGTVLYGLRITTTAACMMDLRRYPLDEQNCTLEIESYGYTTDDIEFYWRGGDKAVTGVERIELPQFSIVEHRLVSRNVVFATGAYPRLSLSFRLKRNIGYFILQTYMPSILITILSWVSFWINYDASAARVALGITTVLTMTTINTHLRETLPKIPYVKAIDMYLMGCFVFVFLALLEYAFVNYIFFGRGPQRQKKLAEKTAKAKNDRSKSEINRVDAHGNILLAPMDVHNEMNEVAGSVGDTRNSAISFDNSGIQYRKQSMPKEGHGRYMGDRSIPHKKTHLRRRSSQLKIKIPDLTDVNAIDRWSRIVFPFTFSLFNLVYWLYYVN"}, "[2]": {"target": "T1, α6β3 GABAAR (binary)", "settings": "read-out: IC50 (μM, ± SEM)", "from_the_text": "two-electrode voltage clamp, Xenopus oocytes on α6β3 GABAAR (binary)"}, "[3]": {"target": "T2, α6β3δ GABAAR (extrasynaptic) (Mus musculus, UniProt P16305+P22933+P63080)", "T2 construct": "gene Gabra6; full-length cDNAs, injected 1:1:5 in Xenopus oocyte nucleus; heteropentamer", "T2 sequence (P63080 26-473)": "as above", "T2 sequence (P22933 25-449)": "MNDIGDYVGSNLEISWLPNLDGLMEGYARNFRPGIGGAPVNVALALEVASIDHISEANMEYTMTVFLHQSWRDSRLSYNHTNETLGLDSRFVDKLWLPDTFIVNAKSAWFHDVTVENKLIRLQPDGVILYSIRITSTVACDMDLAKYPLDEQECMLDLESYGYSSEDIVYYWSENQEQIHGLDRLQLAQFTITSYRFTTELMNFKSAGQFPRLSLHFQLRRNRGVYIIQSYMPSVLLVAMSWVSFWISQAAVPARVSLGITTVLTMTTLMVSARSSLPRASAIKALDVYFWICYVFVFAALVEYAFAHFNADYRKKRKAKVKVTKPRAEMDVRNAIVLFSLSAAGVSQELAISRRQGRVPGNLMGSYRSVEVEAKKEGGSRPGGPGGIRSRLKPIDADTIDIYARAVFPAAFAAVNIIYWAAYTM", "T2 sequence (P16305 20-453)": "as the sequence (P16305 20-453) above", "settings": "read-out: IC50 (μM, ± SEM)", "from_the_text": "two-electrode voltage clamp, Xenopus oocytes on α6β3δ GABAAR (extrasynaptic)"}, "[4]": {"target": "T3, β3 homopentamer (Mus musculus, UniProt P63080)", "T3 construct": "gene Gabrb3; full-length cDNA in pGW1 (= pRK5), expressed in Xenopus oocytes; homopentamer", "T3 sequence (P63080 26-473)": "as the sequence (P63080 26-473) above", "settings": "current through spontaneously open β3; 1, 10 and 100 μM FPN; no GABA; positive modulator"}},
  "data": [
    {"compound": "NCCCC(=O)O", "note": "[GABA]", "values": [
      {"measurement": "EC50", "setting": "[1]", "value": "430 ± 10", "unit": "nM"}
    ]},
    {"compound": "N#Cc1nn(-c2c(Cl)cc(C(F)(F)F)cc2Cl)c(N)c1[S+]([O-])C(F)(F)F", "note": "(stereo not shown) [fipronil]", "values": [
      {"measurement": "IC50", "setting": "[2]", "value": "2.4 ± 0.4", "unit": "µM"},
      {"measurement": "IC50", "setting": "[3]", "value": "20.7 ± 2.6", "unit": "µM"},
      {"measurement": "two-electrode voltage clamp, Xenopus oocytes", "setting": "[4]", "value": "The current density increases as a function of FPN concentrations"}
    ]}
  ]
}
